Results taken from ChEMBL document CHEMBL1129092, “Structure-activity relationship study on N-glycosyl moieties through model building of DNA and ellipticine N-glycoside complex” (1996).
Active and inactive are the calls of the source. The rule behind the calls is not given here.

Legend:
[1] = organism: Mus musculus; assay: Compound was tested for antitumor activity against L1210 in mice; Active; type: functional, organism-based
[2] = test system: L1210; assay: Antitumor activity against L1210 in mice, after ip administration at 30 mg/kg for 5 consecutive days, expressed as average % of life time in 6 mice, treated mice/control; type: functional, Mus musculus; conditions: route intraperitoneal
[3] = organism: Mus musculus; assay: Compound was tested for antitumor activity against L1210 in mice; Inactive; type: functional, organism-based

SMILES | Activity Score [1] | T/C [2] | Activity Score [3]
Cc1c2cc[n+]([C@@H]3OC[C@H](O)[C@H](O)[C@H]3O)cc2c(C)c2c1[nH]c1ccc(O)cc12.[Br-] | Active | >960% | 
CO[C@H]1CO[C@@H]([n+]2ccc3c(C)c4[nH]c5ccc(O)cc5c4c(C)c3c2)[C@H](O)[C@H]1O.[Br-] | Active | 167% | 
CO[C@@H]1[C@@H](O)[C@H]([n+]2ccc3c(C)c4[nH]c5ccc(O)cc5c4c(C)c3c2)OC[C@@H]1O.[Br-] | Active | 169% | 
CO[C@@H]1[C@@H](O)[C@@H](O)CO[C@H]1[n+]1ccc2c(C)c3[nH]c4ccc(O)cc4c3c(C)c2c1.[Br-] |  | 123% | inactive
